According to ChEMBL document CHEMBL5465560, “Selectivity Literature for EUbOPEN Chemogenomic Library” (2024):

Legend:
[1] = molecular target: Tyrosine-protein kinase Blk (Homo sapiens) (UniProt P51451); settings: at 10 µM
[2] = tested on: Tyrosine-protein kinase ABL1 (Homo sapiens), P00519 [Q252H]; test: Selectivity interaction (KinomeScan (DiscoverX)) EUB0000092b ABL1; settings: at 10 µM
[3] = molecular target: Dual specificity mitogen-activated protein kinase kinase 2 (Homo sapiens) (UniProt P36507); test: Selectivity interaction (KinomeScan (DiscoverX)) EUB0000655a MAP2K2; settings: at 10 µM
Dual specificity mitogen-activated protein kinase kinase 2 (Homo sapiens), sequence (P36507 whole entry): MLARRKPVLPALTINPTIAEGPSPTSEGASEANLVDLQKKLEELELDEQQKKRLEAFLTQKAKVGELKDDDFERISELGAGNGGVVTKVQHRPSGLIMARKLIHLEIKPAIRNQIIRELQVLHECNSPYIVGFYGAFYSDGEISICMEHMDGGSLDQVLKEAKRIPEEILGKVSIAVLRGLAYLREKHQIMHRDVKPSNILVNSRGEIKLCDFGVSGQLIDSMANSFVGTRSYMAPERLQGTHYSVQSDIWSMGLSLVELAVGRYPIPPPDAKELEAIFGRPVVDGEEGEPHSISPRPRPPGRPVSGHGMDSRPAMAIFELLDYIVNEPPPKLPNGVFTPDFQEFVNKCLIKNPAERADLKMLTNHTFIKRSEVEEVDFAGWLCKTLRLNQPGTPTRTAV

[4] = molecular target: Serine/threonine-protein kinase tousled-like 2 (Homo sapiens) (UniProt Q86UE8); test: Selectivity interaction (Kinase panel (KiNativ target engagement assay in Jurkat cells)) EUB0001635a TLK2; type: cell-based; settings: at 1 µM
Serine/threonine-protein kinase tousled-like 2 (Homo sapiens), sequence (Q86UE8 whole entry, looked up): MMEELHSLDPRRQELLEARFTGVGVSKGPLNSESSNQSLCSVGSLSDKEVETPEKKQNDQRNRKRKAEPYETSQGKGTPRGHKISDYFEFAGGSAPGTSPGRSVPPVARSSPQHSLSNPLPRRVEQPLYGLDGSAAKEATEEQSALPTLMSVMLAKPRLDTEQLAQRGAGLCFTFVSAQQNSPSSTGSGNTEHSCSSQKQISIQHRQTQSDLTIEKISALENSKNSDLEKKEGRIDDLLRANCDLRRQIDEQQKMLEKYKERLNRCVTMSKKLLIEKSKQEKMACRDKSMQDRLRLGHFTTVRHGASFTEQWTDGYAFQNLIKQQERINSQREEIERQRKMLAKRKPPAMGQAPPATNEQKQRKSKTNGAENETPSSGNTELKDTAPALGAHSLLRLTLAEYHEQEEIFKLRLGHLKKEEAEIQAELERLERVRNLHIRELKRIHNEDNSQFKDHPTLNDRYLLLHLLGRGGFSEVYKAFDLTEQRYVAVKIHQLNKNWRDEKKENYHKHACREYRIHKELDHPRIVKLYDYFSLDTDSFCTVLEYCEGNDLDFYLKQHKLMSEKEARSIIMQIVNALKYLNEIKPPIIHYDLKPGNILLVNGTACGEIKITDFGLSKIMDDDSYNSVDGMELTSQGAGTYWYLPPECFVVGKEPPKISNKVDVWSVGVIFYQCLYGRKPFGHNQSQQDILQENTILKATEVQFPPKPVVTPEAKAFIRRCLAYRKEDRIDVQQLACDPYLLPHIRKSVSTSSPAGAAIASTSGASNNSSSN

[5] = molecular target: Myosin light chain kinase, smooth muscle (Homo sapiens, UniProt Q15746); test: Selectivity interaction (LanthaScreen Eu Kinase Binding Assay) EUB0001632a MYLK; settings: at 10 µM
[6] = molecular target: T1, Ephrin type-B receptor 2 (Homo sapiens) (UniProt P29323); test: Selectivity interaction (KinomeScan (DiscoverX)) EUB0000607a EPHB2; settings: at 10 µM
T1 sequence (whole entry): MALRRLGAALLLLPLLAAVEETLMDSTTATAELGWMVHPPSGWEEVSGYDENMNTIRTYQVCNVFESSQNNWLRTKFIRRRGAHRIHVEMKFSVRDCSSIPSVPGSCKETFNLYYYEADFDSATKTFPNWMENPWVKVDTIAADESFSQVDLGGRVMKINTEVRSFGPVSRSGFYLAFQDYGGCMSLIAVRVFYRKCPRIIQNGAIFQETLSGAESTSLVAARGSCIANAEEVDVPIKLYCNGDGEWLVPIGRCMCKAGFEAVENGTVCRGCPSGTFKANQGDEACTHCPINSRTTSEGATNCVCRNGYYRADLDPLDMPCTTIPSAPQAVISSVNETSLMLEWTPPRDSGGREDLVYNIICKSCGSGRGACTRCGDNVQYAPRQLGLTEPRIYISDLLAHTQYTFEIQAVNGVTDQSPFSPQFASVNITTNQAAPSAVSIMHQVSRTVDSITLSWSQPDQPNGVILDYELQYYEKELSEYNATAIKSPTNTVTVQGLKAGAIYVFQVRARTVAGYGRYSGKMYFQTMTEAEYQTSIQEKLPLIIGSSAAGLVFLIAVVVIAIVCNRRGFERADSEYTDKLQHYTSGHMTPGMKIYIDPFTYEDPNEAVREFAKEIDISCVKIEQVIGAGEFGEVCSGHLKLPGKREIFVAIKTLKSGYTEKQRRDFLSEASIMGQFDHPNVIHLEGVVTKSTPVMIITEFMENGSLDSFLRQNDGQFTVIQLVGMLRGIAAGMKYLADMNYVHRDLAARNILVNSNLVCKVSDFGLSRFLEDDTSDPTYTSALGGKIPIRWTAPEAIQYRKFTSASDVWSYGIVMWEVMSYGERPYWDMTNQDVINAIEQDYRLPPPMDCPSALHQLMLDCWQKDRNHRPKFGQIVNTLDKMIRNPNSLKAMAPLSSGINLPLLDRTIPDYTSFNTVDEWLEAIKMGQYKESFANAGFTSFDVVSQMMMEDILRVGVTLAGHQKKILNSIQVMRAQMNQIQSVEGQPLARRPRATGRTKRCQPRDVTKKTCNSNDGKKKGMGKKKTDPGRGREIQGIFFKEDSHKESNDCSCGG

[7] = molecular target: STE20/SPS1-related proline-alanine-rich protein kinase (Homo sapiens) (UniProt Q9UEW8); test: Selectivity interaction (KinomeScan (DiscoverX)) EUB0000607a STK39; settings: at 10 µM
[8] = molecular target: T1, Ephrin type-B receptor 2 (Homo sapiens); test: Selectivity interaction (KinomeScan (DiscoverX)) EUB0000595a EPHB2; settings: at 10 µM
[9] = molecular target: Death-associated protein kinase 1 (Homo sapiens, UniProt P53355); test: Selectivity interaction (KinomeScan (DiscoverX)) EUB0000618a DAPK1; settings: at 10 µM
Death-associated protein kinase 1, sequence (P53355 whole entry, looked up): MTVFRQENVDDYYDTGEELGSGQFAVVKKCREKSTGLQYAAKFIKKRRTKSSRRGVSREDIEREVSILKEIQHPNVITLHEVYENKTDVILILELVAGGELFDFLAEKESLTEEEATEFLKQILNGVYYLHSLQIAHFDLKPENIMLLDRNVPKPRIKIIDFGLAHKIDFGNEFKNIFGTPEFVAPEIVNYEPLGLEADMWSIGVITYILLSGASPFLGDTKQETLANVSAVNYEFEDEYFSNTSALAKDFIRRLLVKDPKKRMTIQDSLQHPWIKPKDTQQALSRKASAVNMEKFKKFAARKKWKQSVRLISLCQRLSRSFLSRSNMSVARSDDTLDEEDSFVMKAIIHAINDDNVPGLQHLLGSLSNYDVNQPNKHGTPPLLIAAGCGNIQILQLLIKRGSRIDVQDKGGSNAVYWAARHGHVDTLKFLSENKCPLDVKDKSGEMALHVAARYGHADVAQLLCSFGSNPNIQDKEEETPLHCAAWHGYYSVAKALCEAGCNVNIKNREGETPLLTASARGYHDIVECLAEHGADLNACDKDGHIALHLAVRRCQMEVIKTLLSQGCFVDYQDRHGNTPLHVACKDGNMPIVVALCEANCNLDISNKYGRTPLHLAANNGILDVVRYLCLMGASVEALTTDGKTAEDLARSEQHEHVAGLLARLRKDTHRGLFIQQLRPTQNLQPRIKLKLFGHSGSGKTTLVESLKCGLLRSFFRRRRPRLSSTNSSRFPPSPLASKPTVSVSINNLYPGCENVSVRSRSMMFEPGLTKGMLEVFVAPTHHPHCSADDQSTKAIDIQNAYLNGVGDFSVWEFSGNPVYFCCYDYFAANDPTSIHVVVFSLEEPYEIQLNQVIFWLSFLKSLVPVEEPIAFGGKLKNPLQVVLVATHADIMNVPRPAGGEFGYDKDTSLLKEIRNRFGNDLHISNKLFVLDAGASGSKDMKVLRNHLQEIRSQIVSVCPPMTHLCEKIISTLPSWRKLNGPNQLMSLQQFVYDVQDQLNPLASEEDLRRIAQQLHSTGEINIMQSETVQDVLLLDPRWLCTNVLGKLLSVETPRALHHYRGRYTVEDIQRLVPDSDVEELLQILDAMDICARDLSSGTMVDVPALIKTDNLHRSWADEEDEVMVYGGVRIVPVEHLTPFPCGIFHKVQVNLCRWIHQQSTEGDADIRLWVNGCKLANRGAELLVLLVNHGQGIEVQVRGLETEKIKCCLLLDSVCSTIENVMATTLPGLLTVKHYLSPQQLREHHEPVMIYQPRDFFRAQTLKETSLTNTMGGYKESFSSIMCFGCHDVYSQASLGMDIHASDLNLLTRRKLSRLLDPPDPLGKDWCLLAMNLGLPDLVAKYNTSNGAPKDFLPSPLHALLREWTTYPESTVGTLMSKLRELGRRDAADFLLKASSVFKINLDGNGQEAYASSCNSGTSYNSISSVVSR

[10] = molecular target: T2, Serine/threonine-protein kinase 17A (Homo sapiens) (UniProt Q9UEE5); test: Selectivity interaction (Ambit KINOMEscan and KiNATiv profiling in Jurkat cells) EUB0000090b STK17A; type: cell-based; settings: at 1 µM
T2 sequence (whole entry): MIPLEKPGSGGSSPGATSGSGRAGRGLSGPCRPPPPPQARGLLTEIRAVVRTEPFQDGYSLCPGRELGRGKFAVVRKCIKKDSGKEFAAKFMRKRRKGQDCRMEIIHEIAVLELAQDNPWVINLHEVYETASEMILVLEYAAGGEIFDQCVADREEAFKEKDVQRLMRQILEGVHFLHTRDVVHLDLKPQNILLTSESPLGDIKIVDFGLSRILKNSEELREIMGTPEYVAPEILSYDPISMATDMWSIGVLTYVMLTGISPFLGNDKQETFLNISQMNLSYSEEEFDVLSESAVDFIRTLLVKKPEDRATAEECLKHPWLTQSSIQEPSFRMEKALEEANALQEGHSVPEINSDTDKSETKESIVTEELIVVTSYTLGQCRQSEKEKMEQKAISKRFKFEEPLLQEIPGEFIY

[11] = molecular target: Myosin light chain kinase 2, skeletal/cardiac muscle (Homo sapiens) (UniProt Q9H1R3); test: Selectivity interaction (Ambit KINOMEscan and KiNATiv profiling in Jurkat cells) EUB0000090b MYLK2; type: cell-based; settings: at 1 µM
Myosin light chain kinase 2, skeletal/cardiac muscle (Homo sapiens), sequence (Q9H1R3 whole entry): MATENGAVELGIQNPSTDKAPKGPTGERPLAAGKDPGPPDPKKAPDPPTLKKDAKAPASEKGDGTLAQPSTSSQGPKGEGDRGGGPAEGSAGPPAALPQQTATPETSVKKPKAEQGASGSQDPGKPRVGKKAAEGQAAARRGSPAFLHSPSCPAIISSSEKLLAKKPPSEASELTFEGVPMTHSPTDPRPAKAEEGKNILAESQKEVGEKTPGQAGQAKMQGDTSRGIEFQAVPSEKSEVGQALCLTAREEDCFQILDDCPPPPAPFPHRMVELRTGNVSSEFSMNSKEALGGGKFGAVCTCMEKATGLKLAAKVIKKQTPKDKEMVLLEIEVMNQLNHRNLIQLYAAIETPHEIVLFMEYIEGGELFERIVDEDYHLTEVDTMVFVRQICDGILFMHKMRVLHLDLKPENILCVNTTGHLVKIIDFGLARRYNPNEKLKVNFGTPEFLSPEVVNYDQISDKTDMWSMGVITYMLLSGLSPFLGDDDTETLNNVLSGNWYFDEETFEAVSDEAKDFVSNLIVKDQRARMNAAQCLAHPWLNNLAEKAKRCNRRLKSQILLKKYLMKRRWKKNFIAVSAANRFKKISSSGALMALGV

[12] = molecular target: Tyrosine-protein kinase JAK1 (Homo sapiens, UniProt P23458); test: Selectivity interaction (KinomeScan (DiscoverX)) EUB0001619a JAK1; settings: at 1 µM
Tyrosine-protein kinase JAK1, sequence (P23458 whole entry): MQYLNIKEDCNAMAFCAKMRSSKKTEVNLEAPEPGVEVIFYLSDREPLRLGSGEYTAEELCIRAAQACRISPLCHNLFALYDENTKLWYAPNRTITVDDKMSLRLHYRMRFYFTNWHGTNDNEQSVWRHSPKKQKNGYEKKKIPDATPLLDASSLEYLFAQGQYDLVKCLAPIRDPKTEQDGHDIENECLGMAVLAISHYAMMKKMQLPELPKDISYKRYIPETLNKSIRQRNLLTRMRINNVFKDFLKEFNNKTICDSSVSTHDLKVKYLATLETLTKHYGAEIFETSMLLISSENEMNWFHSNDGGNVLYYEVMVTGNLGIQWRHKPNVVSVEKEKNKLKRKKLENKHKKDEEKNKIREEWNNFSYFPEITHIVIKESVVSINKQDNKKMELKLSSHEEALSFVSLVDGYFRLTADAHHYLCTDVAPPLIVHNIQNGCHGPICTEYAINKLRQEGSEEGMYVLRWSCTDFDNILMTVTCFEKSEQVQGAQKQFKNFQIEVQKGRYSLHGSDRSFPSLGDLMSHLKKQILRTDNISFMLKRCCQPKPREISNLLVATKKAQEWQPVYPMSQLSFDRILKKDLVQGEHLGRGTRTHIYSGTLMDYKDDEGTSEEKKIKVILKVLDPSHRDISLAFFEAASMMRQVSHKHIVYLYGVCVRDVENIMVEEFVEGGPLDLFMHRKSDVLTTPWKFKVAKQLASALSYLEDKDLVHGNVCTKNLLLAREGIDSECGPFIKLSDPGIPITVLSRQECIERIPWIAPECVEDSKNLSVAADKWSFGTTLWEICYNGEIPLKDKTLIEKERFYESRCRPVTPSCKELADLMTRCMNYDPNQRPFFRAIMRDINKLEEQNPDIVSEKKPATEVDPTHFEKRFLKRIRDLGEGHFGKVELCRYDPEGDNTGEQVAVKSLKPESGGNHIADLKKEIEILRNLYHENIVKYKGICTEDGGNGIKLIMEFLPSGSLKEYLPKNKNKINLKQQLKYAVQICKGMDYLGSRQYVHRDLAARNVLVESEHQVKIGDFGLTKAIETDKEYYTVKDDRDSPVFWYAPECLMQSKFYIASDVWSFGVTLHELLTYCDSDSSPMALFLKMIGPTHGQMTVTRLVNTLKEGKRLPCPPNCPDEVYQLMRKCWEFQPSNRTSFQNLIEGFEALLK

Tyrosine-protein kinase Blk (Homo sapiens), sequence (P51451 2-505 limits assumed): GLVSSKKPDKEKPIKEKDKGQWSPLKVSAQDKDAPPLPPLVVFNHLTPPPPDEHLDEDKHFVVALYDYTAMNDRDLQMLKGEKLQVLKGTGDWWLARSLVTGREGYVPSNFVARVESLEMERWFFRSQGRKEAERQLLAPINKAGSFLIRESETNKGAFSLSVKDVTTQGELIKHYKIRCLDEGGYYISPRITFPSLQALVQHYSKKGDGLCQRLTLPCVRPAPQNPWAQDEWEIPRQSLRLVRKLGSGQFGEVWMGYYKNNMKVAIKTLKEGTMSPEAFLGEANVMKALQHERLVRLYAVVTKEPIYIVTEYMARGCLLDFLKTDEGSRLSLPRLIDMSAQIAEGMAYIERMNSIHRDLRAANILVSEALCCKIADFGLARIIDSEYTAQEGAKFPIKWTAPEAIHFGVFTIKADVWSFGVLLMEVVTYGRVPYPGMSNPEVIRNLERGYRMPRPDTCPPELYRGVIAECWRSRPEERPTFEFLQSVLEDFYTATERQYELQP

CCN(CC)CCCCNc1ncc2cc(-c3cc(OC)cc(OC)c3)c(NC(=O)NC(C)(C)C)nc2n1
% of control [1]: 100%

CCC(=O)N1CCN(c2ccc(-n3c(=O)ccc4cnc5ccc(-c6cnc7ccccc7c6)cc5c43)cc2C(F)(F)F)CC1
% of control [2]: 99%

CN(C)CCOc1ccc(-c2nc(-c3ccncc3)c(-c3ccc4c(c3)CC/C4=N\O)[nH]2)cc1
% of control [3]: 91%

C=CC(=O)Nc1ccc(C(=O)Nc2[nH]nc3c2CN(C(=O)N[C@H](CN(C)C)c2ccccc2)C3(C)C)cc1
% of engagement ([4]; Selectivity number of off-targets 0.0, Selectivity number of targets 233.0, Source Knowledge https://www.sciencedirect.com/science/article/pii/S2451945619300674?via%3Dihub): 6.8% | % of engagement [4]: 13.7%

Cn1cc(-n2cnc3c(NCc4nc5cc(Cl)c(Cl)cc5[nH]4)nc(N4CCOCC4)nc32)cn1
% of inhibition [5]: -17.4%

CNC(=O)Nc1ccc(-c2nc(N3CC4CCC(C3)O4)c3cnn(C4CCC5(CC4)OCCO5)c3n2)cc1
% of control [6]: 78% | % of control [7]: 100%

COCC(=O)NC/C=C/c1ccc2ncnc(Nc3ccc(Oc4ccc(C)nc4)c(C)c3)c2c1 [CP-724714]
% of control [8]: 100%

O[C@H]1CC[C@H](Nc2ncc3nc(Nc4c(F)cc(F)cc4F)n([C@H]4CCOC4)c3n2)CC1
% of control [9]: 95%

CN(C)C/C=C/C(=O)Nc1ccc(C(=O)N2CCCC(Nc3ncc(Cl)c(-c4c[nH]c5ccccc45)n3)C2)cc1 (stereo not drawn)
% of control [10]: 70% | % of control [11]: 91%

N#Cc1cccc(-c2c[nH]c3ncnc(N4CCOCC4)c23)c1
% of control [12]: 100%
